≈ marks a conversion by molar mass, not a printed value. Where no end group is shown, it is not given here.

The subject of data set [1] is MRSA ATCC43300. Description: Time-kill curves. The note with it: 2× MIC. The data set is classed as cell-based, Staphylococcus aureus. As to the method: The time-kill curves against MRSA ATCC43300 were assayed to evaluate the pharmacodynamics of peptides. The mid-log phase bacteria were diluted to 1×10^5 CFU/mL with fresh medium. […] Finally, the mixtures were cultured at 37 °C and 250 rpm. Samples (150 μL) were taken from each flask at 0, 0.5, 1, 2, 4, 6, 8, 10, 12 and 24 h of incubation, and antimicrobial efficiency was measured by plate colony count (Yang et al. [2019]). Treatment with peptide solvent (PBS) and vancomycin at 2× MIC were used as the negative and positive control. All tests were run in triplicate.

Data set [2] deals with MRSA ATCC43300. Description: microbe, parasite or virus in culture. As to the method:
(§1) The MIC values of peptides against test stains were determined by the microtiter broth dilution method. The bacteria were grown to mid-logarithmic phase and diluted to 1 × 10^5 CFU/mL. Two-fold serial dilutions of peptides were prepared with a gradient concentration of 1280, 640, 320, 160, 80, 40, 20, 10, 5, 2.5, 1.25, and 0.625 μg/mL. A total of 10 μL each serial concentration gradient peptide solutions and 90 μL bacterial suspension were added into 96-well plates. Then the plate was cultured at 37 ℃ for 16–24 h. Vancomycin was tested as control. All assays were performed in triplicate. The MIC refers to the lowest peptide concentration at which there is no visible growth of bacteria (Wiegand et al. [2008]).

A further data set has as its system MSSA ATCC6538. Description: microbe, parasite or virus in culture. As to the method:
as §1

In a further data set the test system is MSSA ATCC25923. Description: microbe, parasite or virus in culture. As to the method:
as §1

The conditions of data set [3]: ref de la Fuente-Nunez et al. [2014]; cited from earlier work. An excerpt: Antimicrobial peptides (AMPs) are kind of bioactive agents with multiple modes of action and appear as one of the most promising antimicrobial drug candidates (Hancock and Sahl [2006]). […] The antimicrobial activity of AMPs was mainly based on their positive charge and hydrophobic residues, which gave them the properties of bacterial cell membrane destruction (Mahlapuu et al. [2016]). Among them, a small synth ...

The format of data set [4] is physicochemical. As to conditions: for MIC at pH 2–10, folds of the normal condition: 3 h incubation in buffers pH 2.0–10.0, relative to MH medium. As to the method:
(§2) The untreated peptides were used as control. […] All assays were performed in triplicate.

A short description of data set [5]: ppGpp binding affinity by ZIC-HILIC HPLC. The note with it: ppGpp 1000 μg/mL + peptide 400 μg/mL, 10 min, centrifuged, HPLC UV 260 nm; mean of triplicate; ppGpp control peak area 34904. As to the method: The temperature of the column is kept at 25 ℃. The ppGpp (TriLink BioTechnologies, USA) which diluted with mobile phase to a concentration of 1000 μg/mL, was used as a positive control. Then the ppGpp (1000 μg/mL) was incubated with peptides (400 μg/mL) for 10 min and centrifuged at 12000 rpm for 10 min. The ppGpp concentration of the samples was calculated by comparing the peak areas of the ppGpp standard.

In a further data set the test system is trypsin. The note with it: trypsin 250 U/mg, pH 8.0, 10:1 w/w, 4 h, 37 °C; MIC against MRSA ATCC43300. As to the method: (§3) The pH stability of peptides was determined after 3 h incubation in 100 mM glycine-HCl buffer (pH 2.0), sodium acetate buffer (pH 4.0), sodium phosphate buffer (pH 6.0), Tris-HCl buffer (pH 8.0), or glycine-NaOH buffer (pH 10.0). Additionally, peptides were incubated in pepsin (3000 U/mg, pH 2.0) and trypsin (250 U/mg, pH 8.0) (10:1, w/w) solutions for 4 h at 37 °C, respectively. The untreated peptides were used as control. The antibacterial activity of treated peptides against MRSA ATCC43300 was determined by MIC determine assay (Yang et al. [2017]). All assays were performed in triplicate.

Data set [6] in a line: Temperature stability (MIC read-out). As to conditions: MIC against MRSA ATCC43300. It is filed as physicochemical. As to the method:
as §2

Data set [7] has as its system MRSA ATCC43300 biofilm. Description: Inhibition of biofilm formation, crystal violet. It is filed as cell-based, Staphylococcus aureus. As to the method: To evaluate the effect of peptides on the biofilm information, mid-logarithmic phase MRSA ATCC43300 (1×10^8 CFU/mL) was grown in tryptic soy broth (TSB) medium on 96-well plates at 37 °C […] in the presence (2–64 μg/mL) or absence of peptides (de Breij et al. [2018]; de Breij et al. [2016]). Subsequently, the planktonic bacteria were removed and biofilms were stained for 30 min with 0.1% crystal violet. After rinsing with PBS twice, the dye binding to the adherent bacterial cells was resolubilized in 95% ethanol (200 μL/well). Finally, absorbance was measured at 570 nm with a microplate reader. Fresh TSB medium was used as negative control.

Data set [8] relates to genomic DNA from MRSA ATCC43300. Description: Gel retardation assay. It is filed as binding, Staphylococcus aureus. The note with it: 10 min, room temperature, 1% agarose gel. As to the method:
To examine the interaction of peptides and MRSA genomic DNA, the gel migration experiment was performed. Genomic DNA was obtained by bacterial genome extraction kit. Different concentrations (0.625 to 20 μg/mL) of peptides and DNA were mixed and incubated for 10 min at room temperature. The migration of genomic DNA was analyzed by electrophoresis on a 1% agarose gel.

For data set [9], the system named is MRSA ATCC43300. Description: SEM/TEM observation of treated bacteria. It is filed as cell-based, Staphylococcus aureus. The note with it: 4× MIC, 2 h, 37 °C. As to the method: The bacteria were fixed with 2.5% glutaraldehyde at 4 °C overnight. For SEM, the bacterial were then dehydrated with a series of graded ethanol solutions (20%, 50%, 70%, 85%, 95% and 100%) and dried by CO2. Gold-palladium was sputtered on samples and observed on a S4800 SEM. For TEM, bacterial were post-fixed with 1% OsO4 for 1 h and then dehydrated for 7 min each time with a graded acetone series (50%, 70%, 85%, 95% and 100%). The samples were immersed in epoxy resin and embedded in capsules containing embedding medium, polymerized at 45 °C for 3 h and at 65 °C for 24 h, respectively. Ultramicrotome was used to acquire thin sections, followed by staining with 1% uranyl acetate. Images were visualized by a Hitachi H-7650 TEM (Yang et al. [2019]).

For the next data set, the system named is pepsin. As to conditions: pepsin 3000 U/mg, pH 2.0, 10:1 w/w, 4 h, 37 °C; MIC against MRSA ATCC43300. As to the method: as §3
Data set [10] deals with MRSA ATCC43300. Description: qRT-PCR of ppGpp metabolism and biofilm formation related genes. It is filed as cell-based, Staphylococcus aureus. As to conditions: 4× MIC, 2 h, 16s rRNA reference. As to the method: The ppGpp metabolism and biofilm formation related genes RSH, relP, relQ, rsbU, sigB, spA, codY, agrA and icaD were chosen in this study. Primer sequences were designed and listed in Additional file 1: Table S1. The 16s rRNA was used as a housekeeping one. […] After washing twice with PBS, the total RNA was isolated. Then cDNA was obtained followed by removing genomic DNA. Finally, real-time reverse transcription-polymerase chain reaction (qRT-PCR) was conducted as previously described. The relative expression ratios were calculated as follows: n-fold transcription = 2^−△△Ct, ∆∆Ct = ∆Ct (drug-treated)[…]∆Ct (untreated), where ∆Ct represents the difference between the cycle threshold (Ct) of the gene studied and the Ct of housekeeping 16s rRNA gene (internal control). Student’s t test was used for analyzing those PCR results (Lee et al. [2013]).
Background: Quantitative PCR measures a nucleic acid by following its amplification.

The test system of data set [11] is MRSA ATCC43300 biofilm. Description: Biofilms observed by CLSM and SEM. As to conditions: 64 μg/mL, 24 h, SYTO9/PI. It is filed as cell-based, Staphylococcus aureus. As to the method:
In order to further explore whether the formation of MRSA ATCC43300 biofilms can be inhibited by peptides, the mid-log phase bacteria were diluted to 1 × 10^8 CFU/mL with TSB medium and seeded into 24-well plates with a glass microscope slide or silicon slice in each well. A concentration of 64 μg/mL peptides were added into plates and incubated for 24 h. Planktonic bacteria were removed by washing with PBS gently. Biofilms on glass microscope slide were stained with SYTO9 and PI according to the instruction (LIVE/DEAD BacLight Bacterial Viability Kit). After incubation for 15 min, the slides were washed with PBS and the biofilms were visualized by SP8 CLSM. Biofilm on silicon slice could be observed by SEM after immobilization, dehydration, drying and coating (Yang et al. [2019]).

For `CN[C@H](CC(C)C)C(=O)N[C@H]1C(=O)N[C@@H](CC(N)=O)C(=O)N[C@H]2C(=O)N[C@H]3C(=O)N[C@H](C(=O)N[C@H](C(=O)O)c4cc(O)cc(O)c4-c4cc3ccc4O)[C@H](O)c3ccc(c(Cl)c3)Oc3cc2cc(c3O[C@@H]2O[C@H](CO)[C@@H](O)[C@H](O)[C@H]2O[C@H]2C[C@](C)(N)[C@H](O)[C@H](C)O2)Oc2ccc(cc2Cl)[C@H]1O` [vancomycin, reference compound], the “incubation time after which bacteria rejuvenated” value in the data set with MRSA ATCC43300 [1] came out at 10 h. The MIC in the data set on MRSA ATCC43300 [2] (Staphylococcus aureus), with MSSA ATCC6538 (Staphylococcus aureus) and in the data set with MSSA ATCC25923 (Staphylococcus aureus) was 1 µg/mL (≈ 0.69 µM) each time.

As for “VRLIVAVRIWRR-NH2 [IDR-1018, reference compound]”, in data set [3], the “MBIC100 (anti-biofilm)” value was 2 to 10 µg/mL and the “MIC (antibacterial)” value is 8 to 256 µg/mL. The “MIC at pH 2–10, folds of the normal condition” value in data set [4] is 1-4 times. Besides, in [5], the “mean ppGpp peak area after incubation with peptide” value came out at 19723. Moreover, the “MIC after trypsin, times of the untreated peptide” value with trypsin is recorded as 16-32 times. For the same compound, in data set [6] (100 °C for 1 h), the retained antibacterial activity is reported as 50%. Moreover, the “impact on biofilm formation” value in the data set on MRSA ATCC43300 biofilm [7] (2–64 μg/mL) was “nearly no impact”. For the same compound, the “concentration inhibiting migration of genomic DNA” value in data set [8] stood at 1.25 µg/mL.

Turning to VRLRWWRRRWRR-NH2 [1018M], the MIC in the data set with MRSA ATCC43300 [2] (ATCC43300) came out at 2 µg/mL; against MSSA ATCC6538 (ATCC6538) it was 1 µg/mL; with MSSA ATCC25923 (ATCC25923), 2 µg/mL. Also, in data set [4] (3 h, pH 2), the “MIC at pH 2–10” value was 2–4 μg/mL. The “MIC at pH 2–10, folds of the normal condition” value in data set [4] was 1–2 folds. Moreover, the “mean ppGpp peak area after incubation with peptide” value in data set [5] turned out to be 14255. In the data set on MRSA ATCC43300 [9], the “ghost bacteria (TEM)” value was “About 10%”. Besides, in the data set with trypsin, the “MIC after trypsin, times of the untreated peptide” value was 16-32 times. In addition, the “activity after treatment with pepsase” value in the data set with pepsin came to 100%. The “antibacterial activity after heat exposure” value in [6] (20, 40, 60, 80 or 100 °C for 1 h, triplicate) is given as “not changed”. In the data set on MRSA ATCC43300 [10], the “transcription of AgrA gene, times upregulated” value is 2.595 time. Further, the “decrease of percentage of biofilm” value in the data set on MRSA ATCC43300 biofilm [7] (64 μg/mL, 24 h, A570) was found to be 78.9%. Besides, the “biofilm formation observed by CLSM” value in the data set with MRSA ATCC43300 biofilm [11] is on record as “completely inhibited”. The “concentration inhibiting migration of genomic DNA” value in data set [8] worked out at 5 µg/mL.

Values taken from article PMC7997937 (AMB Express, 2021).
